Laboratory results published in US20110008465A1, “SESQUITERPENE FORMULATIONS, KITS AND METHODS OF USE THEREOF” (priority 2007, published 2011).
Where a name gives a salt, the structure may show the parent alone.

How the values were obtained:
Assay in all cases: Chou and Talalay combination assay with beta-caryophyllene
Conditions in all cases: anticancer drug in combination with beta-caryophyllene; Chou and Talalay CI; 48 h
[1] = system: A-549 (lung cancer); assay type: cell-based, human
Method: (§1) Each solution was prepared fresh and use within 1 hour after preparation.
(§2) Cells were then harvested using trypsine-EDTA. Cells were counted using a hemocytometer and resuspended in DMEM+10% FBS medium.
(§3) Proliferation assay: Increasing concentrations of the anticancer agents and/or beta-caryophyllene were added to 96-well plate (100 μL per well). The final concentration of solvent in the culture medium was maintained below 0.5% (volume/volume) to avoid solvent toxicity.
(§4) The cells were incubated for 48 h at 37° C. and 5% CO2. Cytotoxicity was assessed using the resazurin reduction test (O'Brien et al., 2000). Fluorescence was measured on an automated 96-well Fluoroskan Ascent FI™ plate reader (Labsystems) using excitation and emission wavelengths of 530 nm and 590 nm, respectively. Resazurin was then removed.
(§5) Microplates were frozen at −20° C. overnight. Plates were thawed, a volume of 100 μl of 0.01% SDS in water was added to the wells, the plates were shaken at room temperature for 3 hours and then frozen once more at −20° C. overnight. […] Plates were shaken in the dark (at room temperature) for at least 2 hours, and fluorescence was measured on an automated 96-well Fluoroskan Ascent FI™ plate reader (Labsystems) using excitation and emission wavelengths of 360 nm and 460 nm, respectively.
(§6) Results were analyzed using the Chou and Talalay method (9) and may be interpreted as follow: Cl>1 represents an antagonist effect of beta-caryophyllene with the corresponding anticancer agent; Cl=1 represents an additive effect of beta-caryophyllene with the corresponding anticancer agent; Cl<1 represents a potentiating effect of beta-caryophyllene with the corresponding anticancer agent.

[2] = system: DLD-1 (colon cancer); assay type: cell-based, human
Method: as §1, §2, §3, §4, §5, §6

[3] = system: MCF-7 (breast cancer); assay type: cell-based, human
Method: as §1, §2, §3, §4, §5, §6

[4] = system: MDA-MB-231 (breast cancer); assay type: cell-based, human
Method: as §1, §2, §3, §4, §5, §6

[5] = system: PA-1 (ovary cancer); assay type: cell-based, human
Method: as §1, §2, §3, §4, §5, §6

[6] = system: PC-3 (prostate cancer); assay type: cell-based, human
Method: as §1, §2, §3, §4, §5

[7] = system: B16 (murine melanoma); assay type: cell-based
Method: as §1, §2, §3, §4, §5, §6

[8] = system: GL-261 (murine glioblastoma); assay type: cell-based
Method: as §1, §2, §3, §4, §5, §6

[9] = system: MEL-2 (human melanoma); assay type: cell-based
Method: as §1, §2, §3, §4, §5, §6

[10] = system: U-251 (human glioblastoma); assay type: cell-based
Method: as §1, §2, §3, §4, §5, §6

Compound	Potentiating activity A-549 [1]	Potentiating activity DLD-1 [2]	Potentiating activity MCF-7 [3]	Potentiating activity MDA [4]	Potentiating activity PA-1 [5]	Potentiating activity PC-3 [6]	Potentiating activity B16 [7]	Potentiating activity GL-261 [8]	Potentiating activity MEL-2 [9]	Potentiating activity U-251 [10]
CN(C)/N=N/c1[nH]cnc1C(N)=O [Dacarbazine, dacarbazine]	(2) (High: CI below 0.5 at IC50)	(3) (Moderate: 0.5 < CI < 0.8 at IC50)	(1) (Very High: CI equal or below 1 at IC20 and Cl below 0.6 to IC50)	(1) (Very High: CI equal or below 1 at IC20 and Cl below 0.6 to IC50)	(1) (Very High: potentiating or additive activity to IC20 and CI < 0.6 to IC50)	(4) (Weak: 0.8 < CI < 1 to IC50)	(1) (Very High: potentiating or additive activity to IC20 and CI < 0.6 to IC50)	(2) (High: CI < 0.5 to IC50)	(1) (Very High: potentiating or additive activity to IC20 and CI < 0.6 to IC50)	(1) (Very High: potentiating or additive activity to IC20 and CI < 0.6 to IC50)
COc1cccc2c1C(=O)c1c(O)c3c(c(O)c1C2=O)C[C@@](O)(C(=O)CO)C[C@@H]3O[C@H]1C[C@H](N)[C@H](O)[C@H](C)O1 [Doxorubicin, doxorubicin hydrochloride]	(2) (High: CI below 0.5 at IC50)	(4) (Weak: 0.8 < CI < 1 at IC50)	(1) (Very High: CI equal or below 1 at IC20 and Cl below 0.6 to IC50)	(3) (Moderate: 0.5 < CI < 0.8 at IC50)	(1) (Very High: potentiating or additive activity to IC20 and CI < 0.6 to IC50)	(4) (Weak: 0.8 < CI < 1 to IC50)	(1) (Very High: potentiating or additive activity to IC20 and CI < 0.6 to IC50)	(3) (Moderate: 0.5 < CI < 0.8 to IC50)	(1) (Very High: potentiating or additive activity to IC20 and CI < 0.6 to IC50)	(1) (Very High: potentiating or additive activity to IC20 and CI < 0.6 to IC50)
COc1cc([C@@H]2c3cc4c(cc3[C@@H](O[C@@H]3O[C@@H]5CO[C@@H](C)O[C@H]5[C@H](O)[C@H]3O)[C@H]3COC(=O)[C@H]23)OCO4)cc(OC)c1O [Etoposide, etoposide]	(4) (Weak: 0.8 < CI < 1 at IC50)	(3) (Moderate: 0.5 < CI < 0.8 at IC50)	(1) (Very High: CI equal or below 1 at IC20 and Cl below 0.6 to IC50)	(1) (Very High: CI equal or below 1 at IC20 and Cl below 0.6 to IC50)	(1) (Very High: potentiating or additive activity to IC20 and CI < 0.6 to IC50)	(6) (Antagonist effect: CI > 1)	(3) (Moderate: 0.5 < CI < 0.8 to IC50)	(2) (High: CI < 0.5 to IC50)	(3) (Moderate: 0.5 < CI < 0.8 to IC50)	(3) (Moderate: 0.5 < CI < 0.8 to IC50)
CN(Cc1cnc2nc(N)nc(N)c2n1)c1ccc(C(=O)N[C@@H](CCC(=O)O)C(=O)O)cc1 [Methotrexate]	(4) (Weak: 0.8 < CI < 1 at IC50)	(4) (Weak: 0.8 < CI < 1 at IC50)	(2) (High: CI below 0.5 at IC50)	(6) (Antagonist effect: CI > 1)	(1) (Very High: potentiating or additive activity to IC20 and CI < 0.6 to IC50)	(6) (Antagonist effect: CI > 1)	(6) (Antagonist effect: CI > 1)	(6) (Antagonist effect: CI > 1)	(1) (Very High: potentiating or additive activity to IC20 and CI < 0.6 to IC50)	(2) (High: CI < 0.5 to IC50)
O=C1c2c(O)ccc(O)c2C(=O)c2c(NCCNCCO)ccc(NCCNCCO)c21 [Mitoxantrone]	(5) (Additive effect: CI = 1)	(5) (Additive effect: CI = 1)	(1) (Very High: CI equal or below 1 at IC20 and Cl below 0.6 to IC50)	(3) (Moderate: 0.5 < CI < 0.8 at IC50)	(2) (High: CI < 0.5 to IC50)	(5) (Additive effect: CI = 1)	(3) (Moderate: 0.5 < CI < 0.8 to IC50)	(1) (Very High: potentiating or additive activity to IC20 and CI < 0.6 to IC50)	(3) (Moderate: 0.5 < CI < 0.8 to IC50)	(4) (Weak: 0.8 < CI < 1 to IC50)
CC/C(=C(\c1ccccc1)c1ccc(OCCN(C)C)cc1)c1ccccc1 [Tamoxifen, tamoxifen citrate]	(3) (Moderate: 0.5 < CI < 0.8 at IC50)	(2) (High: CI below 0.5 at IC50)	(6) (Antagonist effect: CI > 1)	(5) (Additive effect: CI = 1)	(2) (High: CI < 0.5 to IC50)	(2) (High: CI < 0.5 to IC50)	(3) (Moderate: 0.5 < CI < 0.8 to IC50)	(2) (High: CI < 0.5 to IC50)	(1) (Very High: potentiating or additive activity to IC20 and CI < 0.6 to IC50)	(1) (Very High: potentiating or additive activity to IC20 and CI < 0.6 to IC50)
COc1cc2ncnc(Nc3cccc(Cl)c3)c2cc1OC [Tyrphostin, Tyrphostin AG 1478]	(3) (Moderate: 0.5 < CI < 0.8 at IC50)	(1) (Very High: CI equal or below 1 at IC20 and Cl below 0.6 to IC50)	(1) (Very High: CI equal or below 1 at IC20 and Cl below 0.6 to IC50)	(4) (Weak: 0.8 < CI < 1 at IC50)	(2) (High: CI < 0.5 to IC50)	(2) (High: CI < 0.5 to IC50)	(1) (Very High: potentiating or additive activity to IC20 and CI < 0.6 to IC50)	(3) (Moderate: 0.5 < CI < 0.8 to IC50)	(1) (Very High: potentiating or additive activity to IC20 and CI < 0.6 to IC50)	(1) (Very High: potentiating or additive activity to IC20 and CI < 0.6 to IC50)
